Test [1] deals with THP-1. In words: Antiinflammatory activity in human PMA-stimulated THP1 cells assessed as inhibition of LPS-induced TNFalpha production at 10 uM treated 30 mins before LPS challenge measured after 24 hrs by ELISA. In kind it is functional. (An ELISA detects its analyte on a solid surface through an enzyme-linked reagent.)
The test system of test [2] is THP-1. Nature of the test: Antiinflammatory activity in human PMA-stimulated THP1 cells assessed as inhibition of LPS-induced IL-6 production at 10 uM treated 30 mins before LPS challenge measured after 24 hrs by ELISA. In kind it is functional.
The test system of test [3] is Staphylococcus aureus. In words: Antibacterial activity against Staphylococcus aureus up to 200 ug/ml by agar well diffusion method. In kind it is functional, organism-based. On the technique in general: In agar diffusion tests the substance spreads into inoculated agar from a disc or well.
Test [4] concerns Bacillus subtilis. In words: Antibacterial activity against Bacillus subtilis up to 200 ug/ml by agar well diffusion method. In kind it is functional, organism-based.
Test [5] has as its system Escherichia coli. Nature of the test: Antibacterial activity against Escherichia coli up to 200 ug/ml by agar well diffusion method. In kind it is functional, organism-based.
Test [6] concerns Salmonella typhimurium. In words: Antibacterial activity against Salmonella typhimurium up to 200 ug/ml by agar well diffusion method. Type of test: functional, organism-based. The settings on record: Salmonella enterica subsp. enterica serovar Typhimurium.
Test [7] concerns Candida albicans. In words: Antifungal activity against Candida albicans up to 200 ug/ml by agar well diffusion method. In kind it is functional, organism-based.
The test system of test [8] is Aspergillus niger. Nature of the test: Antifungal activity against Aspergillus niger up to 200 ug/ml by agar well diffusion method. In kind it is functional, organism-based.
In test [9] the test system is Fusarium solani. Nature of the test: Antifungal activity against Fusarium solani up to 200 ug/ml by agar well diffusion method. Type of test: functional, organism-based.
Test [10] deals with Aspergillus flavus. In words: Antifungal activity against Aspergillus flavus up to 200 ug/ml by agar well diffusion method. In kind it is functional, organism-based.
The subject of test [11] is Staphylococcus aureus. In words: Antibacterial activity against Staphylococcus aureus by agar well diffusion method. Type of test: functional.
In test [12] the test system is Bacillus subtilis. In words: Antibacterial activity against Bacillus subtilis by agar well diffusion method. In kind it is functional.
The subject of test [13] is Escherichia coli. Nature of the test: Antibacterial activity against Escherichia coli by agar well diffusion method. Type of test: functional.
Test [14] deals with Salmonella typhimurium. In words: Antibacterial activity against Salmonella typhimurium by agar well diffusion method. In kind it is functional, Salmonella enterica subsp. enterica serovar Typhimurium. The settings on record: Salmonella enterica.
For test [15], the system named is Candida albicans. In words: Antifungal activity against Candida albicans by agar well diffusion method. In kind it is functional.
The subject of test [16] is Fusarium solani. In words: Antifungal activity against Fusarium solani by agar well diffusion method. Type of test: functional.
The subject of test [17] is Aspergillus niger. Nature of the test: Antifungal activity against Aspergillus niger by agar well diffusion method. In kind it is functional.
The subject of test [18] is Aspergillus flavus. In words: Antifungal activity against Aspergillus flavus by agar well diffusion method. Type of test: functional.
Test [19] has as its system THP-1. In words: Antiinflammatory activity in human PMA-stimulated THP1 cells assessed as inhibition of LPS-induced TNFalpha production at 1 uM treated 30 mins before LPS challenge measured after 24 hrs by ELISA. Type of test: functional.
Test [20] relates to THP-1. In words: Antiinflammatory activity in human PMA-stimulated THP1 cells assessed as inhibition of LPS-induced IL-6 production at 1 uM treated 30 mins before LPS challenge measured after 24 hrs by ELISA. In kind it is functional.

≈ marks a conversion by molar mass, not a printed value. Calls of active or inactive are those of the source.

Broadly, the inhibition is how much of the control response was suppressed. The MIC is the smallest concentration in the dilution series that meets the test's criterion for growth inhibition. A lower MIC goes with inhibition by little substance.

As for `Cc1ccccc1NC(=S)Nc1ccc(-c2cc(Nc3cccc(C(F)(F)F)c3)ncn2)cc1`, the inhibition at 10 µM in the test with THP-1 [1] and in the test on THP-1 [2] was 0% in each case. For the same compound, the result in the test with Staphylococcus aureus [3], in the test with Bacillus subtilis [4], with Escherichia coli [5], in the test on Salmonella typhimurium [6], in the test on Candida albicans [7] and with Aspergillus niger [8] was inactive. Moreover, the outcome in the test with Fusarium solani [9] and with Aspergillus flavus [10] was inactive.

`O=S(=O)(Nc1ccc(-c2cc(Nc3cccc(C(F)(F)F)c3)ncn2)cc1)c1ccc(OC(F)(F)F)cc1`: the inhibition at 10 µM in the test with THP-1 [1] amounted to 0%; in the test on THP-1 [2] it was 8%. Also, the MIC in the test with Staphylococcus aureus [11] came out at 15 µg/mL (≈ 27.1 µM); against Bacillus subtilis [12], 20 µg/mL (≈ 36.1 µM); against Escherichia coli [13], 15 µg/mL (≈ 27.1 µM); in the test with Salmonella typhimurium [14], 10 µg/mL (≈ 18 µM). Besides, the outcome in the test on Candida albicans [7], in the test with Aspergillus niger [8], with Fusarium solani [9] and in the test with Aspergillus flavus [10] was inactive.

Turning to `O=C(Nc1ccc(-c2cc(Nc3cccc(C(F)(F)F)c3)ncn2)cc1)Nc1cccc(Cl)c1F`, the results for the inhibition at 10 µM in the test on THP-1 [1] and in the test with THP-1 [2] were 78% and 96%, respectively. For the same compound, the MIC in the test with Staphylococcus aureus [11] and against Candida albicans [15] was 90 µg/mL (≈ 179 µM) throughout. Besides, the result in the test with Bacillus subtilis [4], in the test on Escherichia coli [5], with Salmonella typhimurium [6], in the test on Aspergillus niger [8], in the test on Fusarium solani [9] and in the test on Aspergillus flavus [10] was inactive.

For the compound `Cc1cccc(S(=O)(=O)Nc2ccc(-c3cc(Nc4cccc(C(F)(F)F)c4)ncn3)cc2)c1`, the inhibition at 10 µM with THP-1 [1] is 14%; in the test on THP-1 [2], 25%. The MIC against Staphylococcus aureus [11], against Escherichia coli [13] and with Salmonella typhimurium [14] was 90 µg/mL (≈ 186 µM) in each case. Further, the result with Bacillus subtilis [4], with Candida albicans [7], in the test on Aspergillus niger [8], with Fusarium solani [9] and in the test on Aspergillus flavus [10] was inactive.

Turning to `FC(F)(F)c1cccc(Nc2cc(-c3ccc(NC(=S)Nc4ccc(Cl)cc4)cc3)ncn2)c1`, the values for the inhibition at 10 µM with THP-1 [1] and in the test with THP-1 [2] were 23% and 28%, respectively. For the same compound, the MIC is 35 µg/mL (≈ 70 µM) with Staphylococcus aureus [11]; 35 µg/mL (≈ 70 µM) against Bacillus subtilis [12]; 30 µg/mL (≈ 60 µM) in the test with Escherichia coli [13]; 30 µg/mL (≈ 60 µM) against Salmonella typhimurium [14]; 90 µg/mL (≈ 180 µM) with Fusarium solani [16]. The outcome with Candida albicans [7], with Aspergillus niger [8] and with Aspergillus flavus [10] was inactive.

On to `Nc1ccc(-c2cc(Nc3cccc(C(F)(F)F)c3)ncn2)cc1`, for which the inhibition at 10 µM in the test on THP-1 [1] worked out at 0%; with THP-1 [2] it was 6%. In addition, the result in the test with Staphylococcus aureus [3], in the test on Bacillus subtilis [4], with Escherichia coli [5] and with Salmonella typhimurium [6] was inactive. Besides, the MIC with Candida albicans [15] amounted to 80 µg/mL (≈ 242 µM); in the test with Aspergillus niger [17], 80 µg/mL (≈ 242 µM); against Fusarium solani [16], 90 µg/mL (≈ 272 µM); in the test with Aspergillus flavus [18] it was 80 µg/mL (≈ 242 µM).

Turning to `CC1(C)OB(c2ccc([N+](=O)[O-])cc2)OC1(C)C`, the inhibition at 10 µM in the test with THP-1 [1] and in the test on THP-1 [2] was 0% each time. The outcome in the test with Staphylococcus aureus [3], in the test on Bacillus subtilis [4], in the test with Escherichia coli [5], in the test with Salmonella typhimurium [6], in the test with Aspergillus niger [8] and in the test with Fusarium solani [9] was inactive. The result with Aspergillus flavus [10] was inactive. In the test with Candida albicans [15], 90 µg/mL (≈ 361 µM) was the least that counted as inhibitory (MIC).

With `N#Cc1ccc(NC(=O)Nc2ccc(-c3cc(Nc4cccc(C(F)(F)F)c4)ncn3)cc2)cc1`, the inhibition at 10 µM with THP-1 [1] was determined as 61%; in the test on THP-1 [2] it was 80%. Moreover, the result with Staphylococcus aureus [3], in the test with Bacillus subtilis [4], with Escherichia coli [5] and in the test on Salmonella typhimurium [6] was inactive. Further, the MIC in the test on Candida albicans [15] was found to be 80 µg/mL (≈ 169 µM); in the test with Aspergillus niger [17] it was 90 µg/mL (≈ 190 µM); in the test with Fusarium solani [16] it was 75 µg/mL (≈ 158 µM); against Aspergillus flavus [18] it was 80 µg/mL (≈ 169 µM).

On to `CC(C)c1ccc(NC(=O)Nc2ccc(-c3cc(Nc4cccc(C(F)(F)F)c4)ncn3)cc2)cc1`, for which the inhibition at 10 µM with THP-1 [1] was 71%; in the test on THP-1 [2], 90%. The MIC worked out at 25 µg/mL (≈ 50.9 µM) against Staphylococcus aureus [11], 40 µg/mL (≈ 81.4 µM) against Bacillus subtilis [12], 20 µg/mL (≈ 40.7 µM) with Escherichia coli [13] and 40 µg/mL (≈ 81.4 µM) in the test on Salmonella typhimurium [14]. The result in the test on Candida albicans [7], in the test on Aspergillus niger [8], in the test on Fusarium solani [9] and with Aspergillus flavus [10] was inactive.

In the case of `C[C@@H]1C[C@H]2[C@@H]3CCC4=CC(=O)C=C[C@]4(C)[C@@]3(F)[C@@H](O)C[C@]2(C)[C@@]1(O)C(=O)CO` [DEXAMETHASONE], the inhibition at 1 µM in the test on THP-1 [19] is 72%; in the test on THP-1 [20] it was 86%.

For `O=[N+]([O-])c1ccc(-c2cc(Nc3cccc(C(F)(F)F)c3)ncn2)cc1`, the inhibition at 10 µM in the test with THP-1 [1] and in the test with THP-1 [2] was 0% throughout. The outcome in the test on Staphylococcus aureus [3], in the test on Bacillus subtilis [4], in the test on Escherichia coli [5], in the test with Salmonella typhimurium [6], in the test on Candida albicans [7] and in the test on Aspergillus niger [8] was inactive. For the same compound, the result in the test with Fusarium solani [9] and in the test on Aspergillus flavus [10] was inactive.

Consider `O=[N+]([O-])c1ccc(-c2cc(Cl)ncn2)cc1`, for which the inhibition at 10 µM with THP-1 [1] and in the test on THP-1 [2] was 0% each time. Also, the outcome in the test with Staphylococcus aureus [3], in the test with Bacillus subtilis [4], in the test on Escherichia coli [5], with Salmonella typhimurium [6] and with Fusarium solani [9] was inactive. Also, the MIC with Candida albicans [15], against Aspergillus niger [17] and against Aspergillus flavus [18] was 90 µg/mL (≈ 382 µM) in each case.

The record behind these values is ChEMBL document CHEMBL2021896, “A novel pyrimidine derivatives with aryl urea, thiourea and sulfonamide moieties: synthesis, anti-inflammatory and antimicrobial evaluation” (2012).
